The structures appear in SMILES notation.

These results are taken from patent US20230123334A1, “AMINO LIPID COMPOUND, PREPARATION METHOD THEREFOR, AND APPLICATION THEREOF” (SHENZHEN SHENXIN BIOTECHNOLOGY CO., LTD., priority 2020, published 2023).

Tested on in one series: not listed separately
Kind of series: Encapsulation rate of LNP RNA (Qubit RNA HS Assay kit). The conditions noted are these: LNPs, Formulation Method 1. Type of series: physicochemical. On the procedure: (§1) The amino lipid compound of the invention was mixed with DOPE, cholesterol and PEG2000-DMG in a molar ratio of 45:10:42.5:2.5, and dissolved in absolute ethanol such that the molar concentration of the amino lipid compound was 0.001-0.01 mmol/L. By using a microinjection pump, the resultant ethanol solution and a sodium acetate solution (50 mM, pH=4.0) in which luciferase mRNA (Fluc mRNA, TriLink) was dissolved were mixed in a volume ratio of 1:3 in a microchannel chip to prepare a crude solution of lipid nanoparticles, which was then dialyzed in 1×PBS at a controlled temperature of 4° C. for 6 h using a dialysis box (Fisher, MWCO 20,000) and filtered through a 0.22 μm microporous filter membrane before use. The mass ratio of the amino lipid compound to Fluc mRNA was about 10:1. The resultant solution of lipid nanoparticles (LNPs) was administered to the tested animals by subcutaneous administration.
Detection of encapsulation rate: the concentration of LNP RNA was detected by Qubit® RNA HS Assay kit. The theoretical RNA concentration was given by the total amount of RNA input divided by the total volume of the final solution.
(§2) The preparation method was the same as Formulation method 1, except that amino lipid compound, DSPC, cholesterol and PEG2000-DMG were used in a molar ratio of 50:10:38.5: 1.5. The resultant solution of lipid nanoparticles (LNPs) was administered to the tested animals by tail vein and intramuscular injection.
With `CCCCCCCCCCCCCCCCSc1nc(NCCCCCCC)nc(NCCCN2CCN(C)CC2)n1` [Compound S16N7D9], the Encapsulation rate is reported as 98.6%.
The molecule `CCCCCCCC/C=C\CCCCCCCCSc1nc(OCCN2CCCC2)nc(SCCCCCCCCC)n1` [Compound S19S9O8] registered an Encapsulation rate of 99.6%.
`CCCCCCCC/C=C\CCCCCCCCSc1nc(OCC2CCN(C)CC2)nc(SCCCCCCCCC)n1` [Compound S19S9O9] showed an Encapsulation rate of 99.2%.

The same series, now with this note: LNPs, Formulation method 2.
Take `CCCCCCCCCCCCCCCCSc1nc(NCCCCCCC)nc(NCCCN2CCN(C)CC2)n1` [Compound S16N7D9]: the Encapsulation rate stood at 99.2%.
As for `CCCCCCCC/C=C\CCCCCCCCSc1nc(OCCN2CCCC2)nc(SCCCCCCCCC)n1` [Compound S19S9O8], the Encapsulation rate turned out to be 99.2%.
The molecule `CCCCCCCC/C=C\CCCCCCCCSc1nc(OCC2CCN(C)CC2)nc(SCCCCCCCCC)n1` [Compound S19S9O9] came in with an Encapsulation rate of 99.0%.

Tested on in the next series: not listed separately
Nature of the series: Particle size and PDI of lipid nanoparticles (Nano-ZSZEN3600, Malvern). Type of series: physicochemical. Conditions: LNPs, Formulation Method 1. On the procedure: as §1
Characterization of particle size: the particle size and PDI of the prepared lipid nanoparticles were determined by Nano-ZSZEN3600 (Malvern). 40 uL of LNP solution was taken for particle size measurement with circulation for three times, 30 s for each circulation.
as §2
Regarding `CCCCCCCCCCCCCCCCSc1nc(NCCCCCCC)nc(NCCCN2CCN(C)CC2)n1` [Compound S16N7D9], the PDI stood at 0.01.
`CCCCCCCC/C=C\CCCCCCCCSc1nc(OCCN2CCCC2)nc(SCCCCCCCCC)n1` [Compound S19S9O8] returned a PDI of 0.02.
In turn, `CCCCCCCC/C=C\CCCCCCCCSc1nc(OCC2CCN(C)CC2)nc(SCCCCCCCCC)n1` [Compound S19S9O9] registered a PDI of 0.04.

Still in this series, the particulars now being: LNPs, Formulation Method 1 (amino lipid:DOPE:cholesterol:PEG2000-DMG 45:10:42.5:2.5), Fluc mRNA.
On to `CCCCCCCCCCCCCCCCSc1nc(NCCCCCCC)nc(NCCCN2CCN(C)CC2)n1` [Compound S16N7D9], for which the “Particle size (nm)” value was 102 ± 5 nm.
For `CCCCCCCC/C=C\CCCCCCCCSc1nc(OCCN2CCCC2)nc(SCCCCCCCCC)n1` [Compound S19S9O8], the “Particle size (nm)” value turned out to be 88 ± 5 nm.
Regarding `CCCCCCCC/C=C\CCCCCCCCSc1nc(OCC2CCN(C)CC2)nc(SCCCCCCCCC)n1` [Compound S19S9O9], the “Particle size (nm)” value was found to be 110 ± 5 nm.

Still in this series, the particulars now being: LNPs, Formulation method 2.
Take `CCCCCCCCCCCCCCCCSc1nc(NCCCCCCC)nc(NCCCN2CCN(C)CC2)n1` [Compound S16N7D9]: the PDI is on record as 0.05.
Turning to `CCCCCCCC/C=C\CCCCCCCCSc1nc(OCCN2CCCC2)nc(SCCCCCCCCC)n1` [Compound S19S9O8], the PDI worked out at 0.03.
With `CCCCCCCC/C=C\CCCCCCCCSc1nc(OCC2CCN(C)CC2)nc(SCCCCCCCCC)n1` [Compound S19S9O9], the PDI was found to be 0.05.

The series is the same for the next values; noted with them: LNPs, Formulation method 2 (amino lipid:DSPC:cholesterol:PEG2000-DMG 50:10:38.5:1.5), Fluc mRNA.
Turning to `CCCCCCCCCCCCCCCCSc1nc(NCCCCCCC)nc(NCCCN2CCN(C)CC2)n1` [Compound S16N7D9], the “Particle size (nm)” value is given as 92 ± 5 nm.
Same read-out and setting: the value for `CCCCCCCC/C=C\CCCCCCCCSc1nc(OCCN2CCCC2)nc(SCCCCCCCCC)n1` [Compound S19S9O8] was 88 ± 5 nm.
Take `CCCCCCCC/C=C\CCCCCCCCSc1nc(OCC2CCN(C)CC2)nc(SCCCCCCCCC)n1` [Compound S19S9O9]: the “Particle size (nm)” value was determined as 110 ± 5 nm.

The next series concerns BALB/c mice. Nature of the series: In vivo delivery of ovalbumin mRNA (OVA mRNA) and immunity, IgG antibody titer by ELISA. The conditions noted are these: OVA mRNA LNPs 0.5 mg/kg Day 0 and Day 7, serum Day 21, versus DLin-MC3 control, FIG. 1. The method, then:
The amino lipid compound of the invention was mixed with DOPE, cholesterol and PEG2000-DMG in a molar ratio of 50:10:38.5:1.5 and dissolved in absolute ethanol such that the molar concentration of the amino lipid compound was 0.001-0.01 mmol/L. Ovalbumin mRNA (OVA mRNA, TriLink) was dissolved in sodium acetate solution (50 mM, pH=4.0). By using a microinjection pump, the resultant ethanol solution and sodium acetate solution (50 mM, pH=4.0) were mixed in a volume ratio of 1:3 in a microchannel chip to prepare a crude solution of lipid nanoparticles, which was then dialyzed in 1×PBS at a controlled temperature of 4° C. for 6 h using a dialysis box (Fisher, MWCO 20,000), and filtered through a 0.22 μm microporous filter membrane before use. The mass ratio of the amino lipid compound to ovalbumin mRNA (OVA mRNA) was about 10:1.
(§3) Animal Preparation: 6-week aged female BALB/c mice weighed about 20 g were selected and fed in a SPF-grade feeding room. Animal tests were conducted strictly according to the guidelines of national health institutions and the requirements of animal ethics.
In vivo delivery: 3 mice were assigned randomly to each group, and the lipid nanoparticle solution was intramuscularly injected into the leg at a dosage of 0.5 mg/kg mRNA (Day 0). After 7 days, one booster injection was performed at the same dosage (Day 7). On Day 21, blood was taken from the tail vein for serological analysis. DLin-MC3 was used as control (FIG. 1).
Enzyme-linked immunosorbent assay (ELISA): a flat-bottomed 96-well plate (Nunc) was pre-coated, with a concentration of OVA protein of 0.5 μg protein per well in 50 mM carbonate buffer (pH 9.6), and was allowed to stay overnight at 4° C. and then blocked with 5% glycine. Serum obtained from animals receiving the lipid nanoparticle solution containing the mRNA was diluted from 10^2 to 10^6 times with PBS-0.05% Tween (PBS-T) at pH 7.4, and added to the wells, incubated at room temperature and placed at 37° C. for 1 h. Horseradish peroxidase (HRP, Invitrogen) coupled goat anti-mouse IgG was used for labeling in PBS-T-1% BSA at a dilution rate of 1:10,000. After addition of the HRP substrate, the absorbance at 450 nm was measured in ELISA microplate reader (Bio-Rad).
Background: ELISA stands for enzyme-linked immunosorbent assay.
Take `CCCCCCCCCCCCCCCCSc1nc(NCCCCCCC)nc(NCCCN2CCN(C)CC2)n1` [Compound S16N7D9]: the IgG antibody titer entry was “significantly superior to that of the control”.
Turning to `CCCCCCCC/C=C\CCCCCCCCSc1nc(OCCN2CCCC2)nc(SCCCCCCCCC)n1` [Compound S19S9O8], the IgG antibody titer entry was “significantly superior to that of the control”.
`CCCCCCCC/C=C\CCCCCCCCSc1nc(OCC2CCN(C)CC2)nc(SCCCCCCCCC)n1` [Compound S19S9O9]: the IgG antibody titer entry is given as “significantly superior to that of the control”.

For another series, the system named is BALB/c mice. Kind of series: In vivo delivery of luciferase mRNA (Fluc mRNA) by lipid nanoparticles, in vivo imaging. Conditions: intramuscular administration, 0.5 mg/kg Fluc mRNA, after 12 hours. On the procedure: as §1, §2, §3
In vivo delivery: 9 mice were assigned randomly to each group, and the lipid nanoparticle solution was injected by three routes of administration, i.e., subcutaneous, intramuscular and tail vein injection at a dosage of 0.5 mg/kg Fluc mRNA (3 mice for each route of administration). After 12 hours, 200 μL of 10 mg/mL potassium salt of […] (PerkinElmer) was injected into each mouse through the tail vein. After 10 min, the mice were placed under an in vivo imaging system (IVIS-200, Xenogen) to observe the total fluorescence intensity of each mouse and take photographs for record. The expression intensity of Fluc mRNA delivered by representative amino lipid compounds through the three routes of administration are shown in Table 5-7. DLin-MC3 was used as control.
For `CCCCCCCCCCCCCCCCSc1nc(NCCCCCCC)nc(NCCCN2CCN(C)CC2)n1` [Compound S16N7D9], the “Fluorescence intensity (expression intensity of Fluc mRNA)” value (shortened to “Fluorescence intensity”) came to 4.3E+07.
Same read-out and setting: under `CCCCCCCC/C=C\CCCCCCCCSc1nc(OCCN2CCCC2)nc(SCCCCCCCCC)n1` [Compound S19S9O8] stands 9.1E+07; under `CCCCCCCC/C=C\CCCCCCCCSc1nc(OCC2CCN(C)CC2)nc(SCCCCCCCCC)n1` [Compound S19S9O9], 1.8E+07.

Still in this series, the particulars now being: subcutaneous administration, 0.5 mg/kg Fluc mRNA, after 12 hours.
In the case of `CCCCCCCCCCCCCCCCSc1nc(NCCCCCCC)nc(NCCCN2CCN(C)CC2)n1` [Compound S16N7D9], the “Fluorescence intensity” value is 1.4E+07.
On to `CCCCCCCC/C=C\CCCCCCCCSc1nc(OCCN2CCCC2)nc(SCCCCCCCCC)n1` [Compound S19S9O8], for which the “Fluorescence intensity” value turned out to be 1.1E+07.
On to `CCCCCCCC/C=C\CCCCCCCCSc1nc(OCC2CCN(C)CC2)nc(SCCCCCCCCC)n1` [Compound S19S9O9], for which the “Fluorescence intensity” value is 2.8E+07.

Staying with this series, now noted: tail vein administration, 0.5 mg/kg Fluc mRNA, after 12 hours.
As for `CCCCCCCCCCCCCCCCSc1nc(NCCCCCCC)nc(NCCCN2CCN(C)CC2)n1` [Compound S16N7D9], the “Fluorescence intensity” value is on record as 5.1E+07.
The same measure, in the same setting: the value for `CCCCCCCC/C=C\CCCCCCCCSc1nc(OCCN2CCCC2)nc(SCCCCCCCCC)n1` [Compound S19S9O8] was 1.1E+08; that for `CCCCCCCC/C=C\CCCCCCCCSc1nc(OCC2CCN(C)CC2)nc(SCCCCCCCCC)n1` [Compound S19S9O9] was 3.1E+07.
